# Measurements taken from PMC7887271, “Fast acting allosteric phosphofructokinase inhibitors block trypanosome glycolysis and cure acute African trypanosomiasis in mice” (Nature Communications, 2021).
# Tested on: bloodstream form of T. brucei strain Lister 427
# Experiment: T. b. brucei 427 growth inhibition assay (LILiT, Alamar Blue)
# Format: cell-based
# Settings: Trypanosoma brucei, 72 h, read-out: EC50 (µM) in vitro parasite killing of bloodstream form T. brucei Lister 427 (Tbb EC50), 72 h, Alamar Blue
# Procedure: The ‘in vitro’ parasite killing assay used the BSF of the non-human pathogenic subspecies T. b. brucei, strain Lister 427, cultured in HMI-9 medium containing 10% foetal bovine serum. A second cell line, T. b. brucei GVR35-Luc2 which constitutively expresses firefly luciferase was grown in Modified HMI-9 plus 20% foetal calf serum supplemented with 20% Serum Plus (Sigma) and 0.15 μg mL^−1 puromycin. Both strains of trypanosomes were cultured in T-25 vented cap flasks at 37 °C and 5% CO2.
# The ‘in vitro’ parasite killing assay used the bloodstream-form of the non-human pathogenic subspecies T. b. brucei, strain Lister 427 (a gift from Professor Keith Matthews) which was cultured in HMI-9 medium containing 10% fetal bovine serum (FBS). A second cell line, T. b. brucei GVR35-Luc2 which constitutively expresses firefly luciferase (5) was grown in Modified HMI-9 plus 20% fetal calf serum (FCS) supplemented with 20% Serum Plus (Sigma) and 0.15 μg/ml puromycin as described previously (5). Both strains of trypanosomes were cultured in T-25 vented cap flasks at 37 °C and 5% CO2.
# Growth inhibition tests of bloodstream-form T. b. brucei Lister 427 were carried out using the LILiT (long incubation low inoculation test) method (6). The parasites were cultured in complete HMI-9 medium containing 10% FBS in 96-well plates (Greiner Inc.) with approximately 2500 trypanosomes per well. A 3-fold dilution series (in the range from 45 µM – 0.020 µM) of the inhibitor compounds were prepared in the plate; the maximal concentration of DMSO was 0.45%. After 72 hours of incubation at 37 °C and 5% CO2, 50 µl Alamar Blue (0.2% diluted with Dulbecco’s-phosphate buffered saline (D-PBS, Sigma) was added to each well and plates were incubated at 37 °C and 5% CO2 for 4 hours. Fluorescence was read on the BMG multiplate reader using an excitation wavelength of 530 nm and an emission wavelength of 590 nm.
compound,measurement,value
CNCCn1ccc2c(ccn2Cc2ccc(Cl)c(Cl)c2)c1=O [CTCB-435],EC50,0.25 ± 0.05 µM
